The text below walks through data of patent US20080051351A1, “Substances, Compositions, and Methods for Treating Alopecia” (priority 2005, published 2008).

The test deals with testosterone 5α-reductase. Put plainly: Testosterone 5α-reductase micro radioassay (crude nuclear fraction of ventral prostate). The test is classed as biochemical. The conditions noted are these: 0.1 mg/ml 17-alpha-estradiol, with or without 20 μg/ml UL-OHA; 37° C., 1 hour. The procedure: The effect of UL-OHA on inhibiting increase in testosterone 5α-reductase activity can be verified with a micro radioassay.
Biopsies of ventral prostate homogenized with 9 volumes of 0.1 M PBS are filtered through gauze and centrifuged at 3000 rpm for 10 minutes to obtain a crude nuclear fraction. The supernatant is discarded and the pellet resuspended in PBS. This process is repeated once again and the second suspension is used as enzyme solution for the assay.
1 mCi of [4-^14C] testosterone with 17-alpha-estradiol+UL-OHA (calculated for a final conc. of 0.1 mg/ml and 20 μg/ml respectively) and 17-alpha-estradiol (final conc. 0.1 mg/ml) are placed in test tubes and heated to dryness under nitrogen flow. 10 μl of 50 mM NADPH, 60 μl of PBS and 30 μl of testosterone 5α-reductase solution are added and the test tubes and incubated at 37° C. for 1 hour. Finally 0.4 ml of chloroform:methanol (1:2 v/v) are added in order to terminate the reaction and the mixture is centrifuged at 3000 rpm for 10 minutes. […]
The radioactive activity of each extract based on the resulting quantity of testosterone, 5α-dihydro-testosterone, 5α-androstan-3α,17β-diol and 5α-androstan-3β,17β-diol is measured by reading the intensity of isotope emission from the plates as described by Hamada K et al. (IFSCC Magazine 4(2):83-87, 2001). […]

For the compound `C[C@]12CC[C@@H]3c4ccc(O)cc4CC[C@H]3[C@@H]1CC[C@H]2O` [17-alpha-estradiol], the “Percentage inhibition of testosterone conversion relative to the control (anti-androgenic activity)” value is 20%.
